Laboratory results as given in US20100286090A1, “Treatment of Multiple Myeloma” (BRISTOL-MYERS SQUIBB COMPANY, priority 2005, published 2010).

Tested on: MM cell lines
Assay: effect of dasatinib on cell viability of MM cell lines
Type: cell-based
Conditions: Homo sapiens; in 8/15 MM cell lines tested
Excerpt: FIG. 1 illustrates results obtained on the effect of dasatinib at varying concentrations on the cell viability of certain MM cell lines.
Described herein are studies on the oral, multi-targeted kinase inhibitor dasatinib (BMS-354825, Bristol-Myers Squibb Co.) which inhibits BCR-ABL, SRC, c-KIT, PDGF-R, and ephrin (EPH) receptor kinases. Although BCR-ABL and c-KIT are not primary oncogenes driving MM proliferation and survival, dasatinib was studied because of (a) emerging data from our laboratory (CS Mitsiades, unpublished observations) on the expression patterns of EPH receptors in MM cell lines and primary tumor specimens; and (b) the roles of PDGF-R and SRC in tumor-microenvironment interactions, e.g., pericyte function in angiogenesis and osteoclast-mediated bone resorption, respectively.
Dasatinib is active against human MM cells which are resistant to conventional or other investigational treatments. […] For those cell lines highly responsive to dasatinib, their IC50 was in a range of concentrations which are deemed clinically achievable levels (based on data derived from the ongoing clinical trials of this compound in other disease setting).

Cc1nc(Nc2ncc(C(=O)Nc3c(C)cccc3Cl)s2)cc(N2CCN(CCO)CC2)n1 [dasatinib]
IC50: < 100 nM
